The values below are quoted from earlier work in patent US20260335397A1, “TREATMENT OF GEOGRAPHIC ATROPHY” (Apellis Pharmaceuticals, Inc., priority 2022, published 2026).

Where a SMILES comes first, the peptide text is derived from it. Bridges are numbered along the chain shown (N, C = ends). [ ]: non-standard residue; d: D form. Abu = CC[C@H](N)C(=O)O

The test system of the data set is complement activation. As to conditions: relative to compstatin (C-terminally amidated); published data; cited from earlier work.
As for `CC[C@H](C)[C@H](NC(C)=O)C(=O)N[C@H]1CSSC[C@@H](C(=O)N[C@H](C(=O)O)[C@@H](C)O)NC(=O)[C@H](CCCNC(=N)N)NC(=O)[C@H](Cc2c[nH]cn2)NC(=O)[C@H](C)NC(=O)CNC(=O)[C@H](Cc2c[nH]c3ccccc23)NC(=O)[C@H](CC(=O)O)NC(=O)[C@H](CCC(N)=O)NC(=O)[C@H](Cc2ccc3ccccc3c2)NC(=O)[C@H](C(C)C)NC1=O` [Ac V4(2-Nal)/H9A-OH], the Activity over compstatin is given as 38xmore.

On to `CC[C@H](C)[C@H](NC(C)=O)C(=O)N[C@H]1CSSC[C@@H](C(=O)N[C@H](C(=O)O)[C@@H](C)O)NC(=O)[C@H](CCCNC(=N)N)NC(=O)[C@H](Cc2c[nH]cn2)NC(=O)[C@H](C)NC(=O)CNC(=O)[C@H](Cc2c[nH]c3ccccc23)NC(=O)[C@H](CC(=O)O)NC(=O)[C@H](CCC(N)=O)NC(=O)[C@H](Cc2csc3ccccc23)NC(=O)[C@H](C(C)C)NC1=O` [Ac-V4(Bta)/H9A-OH], for which the Activity over compstatin is 65xmore. Take `CC[C@H](C)[C@H](NC(C)=O)C(=O)N[C@H]1CSSC[C@@H](C(=O)N[C@H](C(=O)O)[C@@H](C)O)NC(=O)[C@H](CCCNC(=N)N)NC(=O)[C@H](Cc2c[nH]cn2)NC(=O)[C@H](C)NC(=O)CNC(=O)[C@H](Cc2c[nH]c3ccccc23)NC(=O)[C@H](CC(=O)O)NC(=O)[C@H](CCC(N)=O)NC(=O)[C@H](Cc2cccc3ccccc23)NC(=O)[C@H](C(C)C)NC1=O` [Ac V4(1-Nal)/H9A-OH]: the Activity over compstatin is reported as 30xmore. For `CC[C@H](C)[C@H](NC(C)=O)C(=O)N[C@H]1CSSC[C@@H](C(=O)N[C@H](C(N)=O)[C@@H](C)O)NC(=O)[C@H](CCCNC(=N)N)NC(=O)[C@H](Cc2c[nH]cn2)NC(=O)[C@H](C)NC(=O)CNC(=O)[C@H](Cc2c[nH]c3ccccc23)NC(=O)[C@H](CC(=O)O)NC(=O)[C@H](CCC(N)=O)NC(=O)[C@H](Cc2ccc(C(=O)c3ccccc3)cc2)NC(=O)[C@H](C(C)C)NC1=O` [Ac-V4(Bpa)/H9A], the Activity over compstatin is listed as 86xmore. Take `CC[C@H](C)[C@H](NC(C)=O)C(=O)N[C@H]1CSSC[C@@H](C(=O)N[C@H](C(N)=O)[C@@H](C)O)NC(=O)[C@H](CCCNC(=N)N)NC(=O)[C@H](Cc2c[nH]cn2)NC(=O)[C@H](C)NC(=O)CNC(=O)[C@H](Cc2c[nH]c3ccccc23)NC(=O)[C@H](CC(=O)O)NC(=O)[C@H](CCC(N)=O)NC(=O)[C@H](Cc2c[nH]c3ccccc23)NC(=O)[C@H](C(C)C)NC1=O` [Ac-V4W/H9A]: the Activity over compstatin is on record as 45xmore. `CC[C@H](C)[C@H](NC(=O)CN)C(=O)N[C@H]1CSSC[C@@H](C(=O)N[C@H](C(=O)N[C@@H](CC(N)=O)C(=O)O)[C@@H](C)O)NC(=O)[C@H](CCCNC(=N)N)NC(=O)[C@H](Cc2c[nH]cn2)NC(=O)[C@H](C)NC(=O)CNC(=O)[C@H](Cc2c[nH]c3cc(F)ccc23)NC(=O)[C@H](CC(=O)O)NC(=O)[C@H](CCC(N)=O)NC(=O)[C@H](Cc2c[nH]c3cc(F)ccc23)NC(=O)[C@H](C(C)C)NC1=O` [+G/V4(6fW)/W7(6fW)H9A+N-OH]: the Activity over compstatin was 126xmore.

With `CC[C@H](C)[C@H](NC(C)=O)C(=O)N[C@H]1CSSC[C@@H](C(=O)N[C@H](C(N)=O)[C@@H](C)O)NC(=O)[C@H](CCCNC(=N)N)NC(=O)[C@H](Cc2c[nH]cn2)NC(=O)[C@H](C)NC(=O)CNC(=O)[C@H](Cc2c[nH]c3ccccc23)NC(=O)[C@H](CC(=O)O)NC(=O)[C@H](CCC(N)=O)NC(=O)[C@H](Cc2ccc3ccccc3c2)NC(=O)[C@H](C(C)C)NC1=O` [Ac-V4(2-Nal)/H9A], the Activity over compstatin was 99xmore. With `CC[C@H](C)[C@H](NC(C)=O)C(=O)N[C@H]1CSSC[C@@H](C(=O)N[C@H](C(N)=O)[C@@H](C)O)NC(=O)[C@H](CCCNC(=N)N)NC(=O)[C@H](Cc2c[nH]cn2)NC(=O)[C@H](C)NC(=O)CNC(=O)[C@H](Cc2c[nH]c3ccccc23)NC(=O)[C@H](CC(=O)O)NC(=O)[C@H](CCC(N)=O)NC(=O)[C@H](Cc2c[nH]c3ccc(F)cc23)NC(=O)[C@H](C(C)C)NC1=O` [Ac-V4(5fW)/H9A], the Activity over compstatin is reported as 31xmore.

For the molecule `CC[C@H](C)[C@H](NC(C)=O)C(=O)N[C@H]1CSSC[C@@H](C(=O)N[C@H](C(N)=O)[C@@H](C)O)NC(=O)[C@H](CCCNC(=N)N)NC(=O)[C@H](Cc2c[nH]cn2)NC(=O)[C@H](C)NC(=O)CNC(=O)[C@H](Cc2c[nH]c3ccccc23)NC(=O)[C@H](CC(=O)O)NC(=O)[C@H](CCC(N)=O)NC(=O)[C@H](Cc2csc3ccccc23)NC(=O)[C@H](C(C)C)NC1=O` [Ac-V4(Bta)/H9A], the Activity over compstatin is on record as 64xmore.

Consider `CC[C@H](C)[C@H](NC(C)=O)C(=O)N[C@H]1CSSC[C@@H](C(=O)N[C@@H](C(=O)O)[C@H](C)O)NC(=O)[C@H](CCCNC(=N)N)NC(=O)[C@H](Cc2c[nH]cn2)NC(=O)[C@H](C)NC(=O)CNC(=O)[C@H](Cc2c[nH]c3ccccc23)NC(=O)[C@H](CC(=O)O)NC(=O)[C@H](CCC(N)=O)NC(=O)[C@H](Cc2c[nH]c3ccccc23)NC(=O)[C@H](C(C)C)NC1=O` [Ac-V4W/H9A/T13dT-OH], for which the Activity over compstatin is 55xmore.

Regarding `CC[C@H](C)[C@H](NC(C)=O)C(=O)N[C@H]1CSSC[C@@H](C(=O)N[C@H](C(N)=O)[C@@H](C)O)NC(=O)[C@H](CCCNC(=N)N)NC(=O)[C@H](Cc2c[nH]cn2)NC(=O)[C@H](C)NC(=O)CNC(=O)[C@H](Cc2c[nH]c3ccccc23)NC(=O)[C@H](CC(=O)O)NC(=O)[C@H](CCC(N)=O)NC(=O)[C@H](Cc2c[nH]c3ccc(C)cc23)NC(=O)[C@H](C(C)C)NC1=O` [Ac-V4(5-MeW)/H9A], the Activity over compstatin was 67xmore. In the case of `CC[C@H](C)[C@H](NC(C)=O)C(=O)N[C@H]1CSSC[C@@H](C(=O)N[C@H](C(N)=O)[C@@H](C)O)NC(=O)[C@H](CCCNC(=N)N)NC(=O)[C@H](Cc2c[nH]cn2)NC(=O)[C@H](C)NC(=O)CNC(=O)[C@H](Cc2c[nH]c3ccccc23)NC(=O)[C@H](CC(=O)O)NC(=O)[C@H](CCC(N)=O)NC(=O)[C@H](C2Cc3ccccc3C2)NC(=O)[C@H](C(C)C)NC1=O` [Ac-V42Igl/H9A], the Activity over compstatin is 39xmore. For `CC[C@H](C)[C@H](NC(C)=O)C(=O)N[C@H]1CSSC[C@@H](C(=O)N[C@H](C(=O)O)[C@@H](C)O)NC(=O)[C@H](CCCNC(=N)N)NC(=O)[C@H](Cc2c[nH]cn2)NC(=O)[C@H](C)NC(=O)CNC(=O)[C@H](Cc2c[nH]c3ccccc23)NC(=O)[C@H](CC(=O)O)NC(=O)[C@H](CCC(N)=O)NC(=O)[C@H](C2Cc3ccccc3C2)NC(=O)[C@H](C(C)C)NC1=O` [Ac-V42Igl/H9A-OH], the Activity over compstatin is 37xmore. On to `CC[C@H](C)[C@H](NC(C)=O)C(=O)N[C@H]1CSSC[C@@H](C(=O)N[C@H](C(N)=O)[C@@H](C)O)NC(=O)[C@H](CCCNC(=N)N)NC(=O)[C@H](Cc2c[nH]cn2)NC(=O)[C@H](C)NC(=O)CNC(=O)[C@H](Cc2c[nH]c3ccc(F)cc23)NC(=O)[C@H](CC(=O)O)NC(=O)[C@H](CCC(N)=O)NC(=O)[C@H](Cc2cn(C)c3ccccc23)NC(=O)[C@H](C(C)C)NC1=O` [Ac-V4(1MeW)/W7(5fW)/H9A], for which the Activity over compstatin was 264xmore. Regarding `CC[C@H](C)[C@H](NC(C)=O)C(=O)N[C@H]1CSSC[C@@H](C(=O)N[C@H](C(N)=O)[C@@H](C)O)NC(=O)[C@H](CCCNC(=N)N)NC(=O)[C@H](Cc2c[nH]cn2)NC(=O)[C@H](C)NC(=O)CNC(=O)[C@H](Cc2c[nH]c3ccccc23)NC(=O)[C@H](CC(=O)O)NC(=O)[C@H](CCC(N)=O)NC(=O)[C@H](Cc2ccc(O)cc2)NC(=O)[C@H](C(C)C)NC1=O` [Ac-V4Y/H9A], the Activity over compstatin was 14xmore. As for `CC[C@@H]1NC(=O)CNC(=O)[C@H](Cc2c[nH]c3ccccc23)NC(=O)[C@H](CC(=O)O)NC(=O)[C@H](CCC(N)=O)NC(=O)[C@H](Cc2c[nH]c3ccccc23)NC(=O)[C@H](C(C)C)NC(=O)[C@@H](NC(=O)[C@@H](NC(C)=O)[C@@H](C)CC)CSSC[C@@H](C(=O)N[C@H](C(N)=O)[C@@H](C)O)NC(=O)[C@H](CCCNC(=N)N)NC(=O)[C@H](Cc2c[nH]cn2)NC1=O` [Ac-V4W/H9(2-Abu)] (Ac-ICVWQDWG[Abu]HRCT-NH2; disulfide 2-12), the Activity over compstatin was 64xmore.

With `CC[C@H](C)[C@H](NC(C)=O)C(=O)N[C@H]1CSSC[C@@H](C(=O)N[C@H](C(N)=O)[C@@H](C)O)NC(=O)[C@H](CCCNC(=N)N)NC(=O)[C@H](Cc2c[nH]cn2)NC(=O)[C@H](Cc2c[nH]cn2)NC(=O)CNC(=O)[C@H](Cc2c[nH]c3ccccc23)NC(=O)[C@H](CC(=O)O)NC(=O)[C@H](CCC(N)=O)NC(=O)[C@H](C(C)C)NC(=O)[C@H](C(C)C)NC1=O` [Ac-compstatin], the Activity over compstatin is given as 3xmore. For `CC[C@H](C)[C@H](NC(C)=O)C(=O)N[C@H]1CSSC[C@@H](C(=O)N[C@H](C(N)=O)[C@@H](C)O)NC(=O)[C@H](CCCNC(=N)N)NC(=O)[C@H](Cc2c[nH]cn2)NC(=O)[C@H](C)NC(=O)CNC(=O)[C@H](Cc2c[nH]c3ccc(F)cc23)NC(=O)[C@H](CC(=O)O)NC(=O)[C@H](CCC(N)=O)NC(=O)[C@H](Cc2c[nH]c3ccccc23)NC(=O)[C@H](C(C)C)NC1=O` [Ac-V4W/W7(5fW)/H9A], the Activity over compstatin is given as 121xmore. Turning to `CC[C@H](C)[C@H](NC(C)=O)C(=O)N[C@H]1CSSC[C@@H](C(=O)N[C@H](C(=O)O)[C@@H](C)O)NC(=O)[C@H](CCCNC(=N)N)NC(=O)[C@H](Cc2c[nH]cn2)NC(=O)[C@H](C)NC(=O)CNC(=O)[C@H](Cc2c[nH]c3ccccc23)NC(=O)[C@H](CC(=O)O)NC(=O)[C@H](CCC(N)=O)NC(=O)[C@H](Cc2ccc(C(=O)c3ccccc3)cc2)NC(=O)[C@H](C(C)C)NC1=O` [Ac-V4(Bpa)/H9A-OH], the Activity over compstatin is reported as 49xmore.
